According to US20140166028A1, “Enhanced Delivery of Nicotine, THC, Tobacco, Cannabidiol or Base Alkaloid from an Electronic Cigarette or Other Vapor or Smoke Producing Device Through Use of an Absorption Conditioning Unit” (priority 2012, published 2014):
Values joined by “and” are separate entries in the source; they are usually repeats but may differ in a detail not shown here. Identical values can stand only once.

Key:
[1] = Buffer power test: pH on 1X, 2X, 3X dilution with Dulbecco's phosphate buffered saline (DPBS); format: physicochemical; conditions: for pH 1X DPBS: 1X dilution with DPBS; for pH 1X DPBS / pH 2X DPBS / pH 3X DPBS / pH 0X DPBS: 22-23° C.; for 1× pH: 1× dilution with DPBS; for pH 2X DPBS: 2X dilution with DPBS; for 2× pH: 2× dilution with DPBS; for pH 3X DPBS: 3X dilution with DPBS; for 3× pH: 3× dilution with DPBS; for pH of the product or solution: undiluted (0×); for pH 0X DPBS: undiluted
Protocol: The pH of the resulting solution is tested and the test is passed if the resulting solution has a pH below 6.0.”
A Dulbecco phosphate buffer saline solution (DPBS) was purchased and used for all compositions at the 1×, 2× and 3× dilution. A typical composition for DPBS is provided below:

[2] = capsules with sesame oil, oral; cited from earlier work

| Compound | pH 1X DPBS [1] | 1× pH [1] | pH 2X DPBS [1] | 2× pH [1] | pH 3X DPBS [1] | 3× pH [1] | pH of the product or solution ([1]; listed as 0.1M Sodium Carbonate) | pH of the product or solution ([1]; listed as Sodium carbonate solution: 0.1M) | pH 0X DPBS [1] | fraction entering the systemic circulation [2] | pH 1X DPBS ([1]; listed as NaHCO3 .1M*) | pH 1X DPBS ([1]; listed as NaHCO3 .1M**) | pH 2X DPBS ([1]; listed as NaHCO3 .1M*) | pH 2X DPBS ([1]; listed as NaHCO3 .1M**) | pH 3X DPBS ([1]; listed as NaHCO3 .1M*) | pH 3X DPBS ([1]; listed as NaHCO3 .1M**) | pH of the product or solution [1] |
| --- | --- | --- | --- | --- | --- | --- | --- | --- | --- | --- | --- | --- | --- | --- | --- | --- | --- |
| O=C([O-])[O-].[Na+].[Na+] [Na2CO3 .1M, sodium carbonate] | 10.9 and 11.1 | 10.9 | 11.1 | 10.8 | 11.1 | 10.6 | 11.3 | 11.5 | 11.5 and 11.3 | – | – | – | – | – | – | – | – |
| CCCCCc1cc(O)c2c(c1)OC(C)(C)[C@@H]1CCC(C)=C[C@@H]21 [dronabinol] | – | – | – | – | – | – | – | – | – | 10-20% | – | – | – | – | – | – | – |
| O=C([O-])O.[Na+] [0.1M Sodium Bicarbonate, sodium bicarbonate] | – | 7.9 and 7.7 | – | 7.5 | – | 7.5 | – | – | 8.1 | – | 7.9 and 7.7 | 7.7 | 7.5 and 7.6 | 7.5 | 7.5 and 7.6 | 7.5 | 8.1 |
